Tests used:
[1] = Translocation through cell membranes / uptake by cells; assay type: cell-based
HEK293 cells = assay: Rescue potential of CoA and 4′-phosphopantetheine in HOPAN assay; assay type: cell-based, mammalian; settings: HOPAN 0.5 mM, 250 μM compound, 4 days
Protocol: Mammalian HEK293 cells treated with the chemical inhibitor HOPAN (hopanthenate, CAS 17097-76-6, IUPAC: calcium 4-[[(2R)-2,4-dihydroxy-3,3-dimethylbutanoyl]amino]butanoate). Cells treated with HOPAN show a reduction in intracellular CoA levels, which induces a decrease in cell viability.
Materials and Methods: HEK293 cells were cultured in vitamin B5 deficient DMEM (Thermo Scientific) supplemented with 10% dialysed FCS (Thermo Scientific) with and without HOPAN (0.5 mM) and CoA and 4′-phosphopantetheine for 4 days. 250 μM of CoA and 4′-phosphopantetheine was used for determination of rescue efficiency.

[2] = Conversion of CoA into 4′-phosphopantetheine in human serum (HPLC)
Protocol: (§1) Materials and Methods: CoA (purchased from Sigma) was incubated at a final concentration of 10 μM human serum for 6 hours at 37° C. After incubation, the samples were processed to remove proteins and HPLC analysis was used to assess the amount of remaining compound CoA and amount of generated 4′-phosphopantetheine, indicating conversion of CoA to 4′-phosphopantetheine.

[3] = patients with moderate dyslipidemia; cited from earlier work
[4] = 3 h, 10 μM
Protocol: as §1

[5] = 400 U Coenzyme A/day for 3 weeks combined with statins, oral; cited from earlier work

Row | SMILES | translocation through cell membranes / uptake by cells [1] | rescue of HOPAN induced cell count defect (HEK293 cells; FIG. 2) | rescue of HOPAN induced cell count defect (HEK293 cells; FIG. 2, listed as 4PPT) | rescue of HOPAN induced decrease of intracellular CoA levels (HEK293 cells; FIG. 3) | rescue of HOPAN induced decrease of intracellular CoA levels (HEK293 cells; FIG. 3, listed as 4PPT) | stability in human serum ([2]; human serum over 6 hours incubation) | concentrations of 4′-phosphopantetheine generated from CoA in human serum ([2]; human serum, 37° C., 6 hours incubation of CoA, HPLC) | plasma triglyceride levels [3] | CoA degraded in human serum [4] [%] | toxicity [5]
1 | CC(C)(COP(=O)(O)O)[C@@H](O)C(=O)NCCC(=O)NCCS [4′-phosphopantetheine] | able to effectively translocate through cell membranes | rescued the cell count defect | as potent as CoA | significantly rescued | as potent as CoA | stable | observed to increase | – | – | –
2 | CC(C)(COP(=O)(O)OP(=O)(O)OC[C@H]1O[C@@H](n2cnc3c(N)ncnc32)[C@H](O)[C@@H]1OP(=O)(O)O)[C@@H](O)C(=O)NCCC(=O)NCCS [CoA, Coenzyme A, reference compound] | cells do not absorb CoA directly | rescued the cell count defect | – | significantly rescued | – | – | – | effectively reduce plasma triglyceride levels | 60 | no toxicity was observed

— patent US10624908B2, “Phosphopantetheine compounds alone or in combination with HMG-CoA reductase inhibitors for lowering serum cholesterol and serum triglicerides” (COMET THERAPEUTICS, INC., priority 2014, dated 2020)
